Test results taken from patent US7186831B2, “5-halo-2-alkyl[1,2,4]triazolo[1,5-a]pyrimidin-7-amines” (priority 2001, dated 2007).

Assay: log P by HPLC
Assay type: physicochemical
Conditions: HPLC, gradient method, acetonitrile/0.1% aqueous phosphoric acid; EEC directive 79/831 Annex V. A8

| Structure (SMILES) | logP |
| --- | --- |
| CC1CCCCN1c1c(-c2c(F)cccc2Cl)c(Cl)nc2nc(C3CC3)nn12 (stereo not drawn) [compound 705] | 4.54 |
| CC1CCN(c2c(-c3c(F)cccc3Cl)c(Cl)nc3nc(C4CC4)nn23)CC1 [compound 706] | 4.59 |
| Fc1cccc(Cl)c1-c1c(Cl)nc2nc(C3CC3)nn2c1N1CCC(F)CC1 [compound 707] | 3.63 |
| Fc1cccc(Cl)c1-c1c(Cl)nc2nc(C3CC3)nn2c1N1CCCCC1 [compound 708] | 4.19 |
| Fc1cccc(Cl)c1-c1c(Cl)nc2nc(C3CC3)nn2c1N1CCOCC1 [compound 709] | 3.05 |
| CCNc1c(-c2ccc(F)cc2F)c(Cl)nc2nc(C3CC3)nn12 [compound 712] | 2.97 |
| N#CCNc1c(-c2ccc(F)cc2F)c(Cl)nc2nc(C3CC3)nn12 [compound 713] | 2.42 |
| Fc1ccc(-c2c(Cl)nc3nc(C4CC4)nn3c2NCC(F)(F)F)c(F)c1 [compound 714] | 3.17 |
| Fc1ccc(-c2c(Cl)nc3nc(C4CC4)nn3c2NC2CCCCC2C(F)(F)F)c(F)c1 (stereo not drawn) [compound 715] | 4.08 |
| Fc1ccc(-c2c(Cl)nc3nc(C4CC4)nn3c2NC2CC(C(F)(F)F)CC(C(F)(F)F)C2)c(F)c1 (stereo not drawn) [compound 716] | 4.31 |
| CCOC(=O)CN(C)c1c(-c2ccc(F)cc2F)c(Cl)nc2nc(C3CC3)nn12 [compound 717] | 3.28 |
| CN(CCC#N)c1c(-c2ccc(F)cc2F)c(Cl)nc2nc(C3CC3)nn12 [compound 718] | 2.79 |
| CN(CC#N)c1c(-c2ccc(F)cc2F)c(Cl)nc2nc(C3CC3)nn12 [compound 719] | 2.79 |
| COC(=O)CN(C)c1c(-c2ccc(F)cc2F)c(Cl)nc2nc(C3CC3)nn12 [compound 720] | 2.95 |
| CN(CCCl)c1c(-c2ccc(F)cc2F)c(Cl)nc2nc(C3CC3)nn12 [compound 721] | 3.5 |
| CN(C)c1c(-c2ccc(F)cc2F)c(Cl)nc2nc(C3CC3)nn12 [compound 722] | 3.06 |
| CCN(CCN(C)C)c1c(-c2ccc(F)cc2F)c(Cl)nc2nc(C3CC3)nn12 [compound 723] | 1.65 |
| CCN(CCN)c1c(-c2ccc(F)cc2F)c(Cl)nc2nc(C3CC3)nn12 [compound 724] | 1.47 |
| CCN(CCC#N)c1c(-c2ccc(F)cc2F)c(Cl)nc2nc(C3CC3)nn12 [compound 725] | 3.07 |
| CCCN(CCCN)c1c(-c2ccc(F)cc2F)c(Cl)nc2nc(C3CC3)nn12 [compound 726] | 1.61 |
| CCOC(=O)CN(c1c(-c2ccc(F)cc2F)c(Cl)nc2nc(C3CC3)nn12)C1CC1 [compound 727] | 3.84 |

| Structure (SMILES) | logP |
| --- | --- |
| CC(=O)NC1CCN(c2c(-c3ccc(F)cc3F)c(Cl)nc3nc(C4CC4)nn23)C1 (stereo not drawn) [compound 728] | 2.17 |
| Fc1ccc(-c2c(Cl)nc3nc(C4CC4)nn3c2N2CCCC2C(F)(F)F)c(F)c1 (stereo not drawn) [compound 729] | 4.14 |
| CC(=O)C1CCN(c2c(-c3ccc(F)cc3F)c(Cl)nc3nc(C4CC4)nn23)CC1 [compound 730] | 3.07 |
| COC(=O)C1CCN(c2c(-c3ccc(F)cc3F)c(Cl)nc3nc(C4CC4)nn23)CC1 [compound 731] | 3.38 |
| Fc1ccc(-c2c(Cl)nc3nc(C4CC4)nn3c2N2CCC(Br)CC2)c(F)c1 [compound 732] | 4.08 |
| COC(=O)C1CCCCN1c1c(-c2ccc(F)cc2F)c(Cl)nc2nc(C3CC3)nn12 (stereo not drawn) [compound 733] | 3.92 |
| Fc1ccc(-c2c(Cl)nc3nc(C4CC4)nn3c2N2CCC(N3CCOCC3)CC2)c(F)c1 [compound 734] | 1.55 |
| CN1CCN(c2c(-c3ccc(F)cc3F)c(Cl)nc3nc(C4CC4)nn23)CC1 [compound 735] | 1.43 |
| CC1CN(c2c(-c3ccc(F)cc3F)c(Cl)nc3nc(C4CC4)nn23)CC(C)O1 (stereo not drawn) [compound 736] | 3.63 |
| Cc1cccc(Nc2c(-c3ccc(F)cc3F)c(Cl)nc3nc(C4CC4)nn23)c1 [compound 737] | 3.61 |
| Fc1ccc(Nc2c(-c3ccc(F)cc3F)c(Cl)nc3nc(C4CC4)nn23)cc1 [compound 738] | 3.27 |
| CC(C)Nc1c(-c2c(F)cccc2F)c(Cl)nc2nc(C3CC3)nn12 [compound 739] | 3.14 |
| Fc1cccc(F)c1-c1c(Cl)nc2nc(C3CC3)nn2c1NC1CCCC1 [compound 740] | 3.66 |
| FC(F)CNc1c(-c2ccc(Cl)cc2Cl)c(Cl)nc2nc(C3CC3)nn12 [compound 741] | 3.42 |
| FC(F)(F)CNc1c(-c2ccc(Cl)cc2Cl)c(Cl)nc2nc(C3CC3)nn12 [compound 742] | 3.72 |
| Fc1cccc(F)c1-c1c(Cl)nc2nc(C3CC3)nn2c1N1OC2CCC1C2 (stereo not drawn) [compound 743] | 3.23 |
| CC(C)CNc1c(-c2c(F)cccc2F)c(Cl)nc2nc(C3CC3)nn12 [compound 744] | 3.44 |
| Clc1ccccc1-c1c(Cl)nc2nc(C3CC3)nn2c1NCC1CC1(Cl)Cl (stereo not drawn) [compound 745] | 3.78 |
| CC(C)CN(N)c1c(-c2ccc(Cl)cc2Cl)c(Cl)nc2nc(C3CC3)nn12 [compound 750] | 4.36 |
| CC(C)C(C)Nc1c(-c2c(F)cccc2F)c(Cl)nc2nc(C3CC3)nn12 (stereo not drawn) [compound 751] | 3.82 |
| C=C(C)CN(CC)c1c(-c2c(F)cccc2F)c(Cl)nc2nc(C3CC3)nn12 [compound 752] | 4.31 |

| Structure (SMILES) | logP |
| --- | --- |
| Fc1cccc(F)c1-c1c(Cl)nc2nc(C3CC3)nn2c1N1CCCCO1 [compound 753] | 3.47 |
| CC(C)CN(N)c1c(-c2c(F)cccc2F)c(Cl)nc2nc(C3CC3)nn12 [compound 754] | 3.47 |
| C=C(C)CNc1c(-c2c(F)cccc2F)c(Cl)nc2nc(C3CC3)nn12 [compound 760] | 3.28 |
| CCC(C)Nc1c(-c2c(F)cccc2F)c(Cl)nc2nc(C3CC3)nn12 (stereo not drawn) [compound 761] | 3.44 |
| CC(C)(C)CNc1c(-c2c(F)cccc2F)c(Cl)nc2nc(C3CC3)nn12 [compound 762] | 3.9 |
| Fc1cccc(F)c1-c1c(Cl)nc2nc(C3CC3)nn2c1NCC(F)F [compound 763] | 2.72 |
| CC(Nc1c(-c2c(F)cccc2F)c(Cl)nc2nc(C3CC3)nn12)C(F)(F)F (stereo not drawn) [compound 764] | 3.98 |
| Cc1nc2nc(Cl)c(-c3ccc(F)cc3Cl)c(NCC(F)(F)F)n2n1 [compound 766] | 2.8 |
| C=C(C)CN(CC)c1c(-c2ccc(Cl)cc2Cl)c(Cl)nc2nc(C3CC3)nn12 [compound 769] | 5.25 |
| Fc1cccc(F)c1-c1c(Cl)nc2nc(C3CC3)nn2c1N1CC=CCO1 [compound 770] | 3.32 |
| Fc1cccc(F)c1-c1c(Cl)nc2nc(C3CC3)nn2c1NCC(F)(F)F [compound 771] | 3.04 |
| CC(C)CN(N)c1c(-c2c(F)cc(F)cc2F)c(Cl)nc2nc(C3CC3)nn12 [compound 773] | 3.65 |
| CC(Nc1c(-c2ccc(Cl)cc2Cl)c(Cl)nc2nc(C3CC3)nn12)C(=O)O (stereo not drawn) [compound 774] | 2.7 |
| Cc1nc2nc(Cl)c(-c3ccc(Cl)cc3Cl)c(N3OC4CCC3C4)n2n1 (stereo not drawn) [compound 780] | 3.41 |
| C=C(C)CN(CC)c1c(-c2ccc(Cl)cc2Cl)c(Cl)nc2nc(C)nn12 [compound 783] | 4.56 |
| Cc1nc2nc(Cl)c(-c3ccc(Cl)cc3Cl)c(N3CCCCN3)n2n1 [compound 784] | 3.35 |
| Fc1ccc(-c2c(Cl)nc3nc(C4CC4)nn3c2N2CCCCO2)c(Cl)c1 [compound 785] | 3.87 |
| Fc1cc(F)c(-c2c(Cl)nc3nc(C4CC4)nn3c2N2CC=CCO2)c(F)c1 [compound 786] | 3.56 |
| CC(C)=NN(CC(C)C)c1c(-c2c(F)cccc2F)c(Cl)nc2nc(C3CC3)nn12 [compound 787] | 4.21 |
| Cc1nc2nc(Cl)c(-c3ccc(Cl)cc3Cl)c(NC(C)C(C)C)n2n1 (stereo not drawn) [compound 788] | 4.06 |
| Cc1nc2nc(Cl)c(-c3ccc(Cl)cc3Cl)c(NCC(C)C)n2n1 [compound 789] | 3.68 |

| Structure (SMILES) | logP |
| --- | --- |
| CC(C)CNc1c(-c2ccc(Cl)cc2Cl)c(Cl)nc2nc(C3CC3)nn12 [compound 790] | 4.3 |
| CC(C)CN(N)c1c(-c2c(F)cccc2Cl)c(Cl)nc2nc(C3CC3)nn12 [compound 791] | 3.74 |
| CC(=O)NC1CCN(c2c(-c3ccc(F)cc3F)c(Cl)nc3nc(C(F)(F)F)nn23)C1 (stereo not drawn) [compound 793] | 2.56 |
| CN(C)C1CCN(c2c(-c3ccc(F)cc3F)c(Cl)nc3nc(C(F)(F)F)nn23)C1 (stereo not drawn) [compound 795] | 1.67 |
| Fc1ccc(-c2c(Cl)nc3nc(C(F)(F)F)nn3c2N2CCC3(CC2)OCCO3)c(F)c1 [compound 796] | 3.8 |
| CC1CC(C)CN(c2c(-c3ccc(F)cc3F)c(Cl)nc3nc(C(F)(F)F)nn23)C1 (stereo not drawn) [compound 797] | 5.18 |
| CC1CCN(c2c(-c3ccc(F)cc3F)c(Cl)nc3nc(C(F)(F)F)nn23)CC1 [compound 798] | 4.8 |
| OC1CCCN(c2c(-c3ccc(F)cc3F)c(Cl)nc3nc(C(F)(F)F)nn23)C1 (stereo not drawn) [compound 799] | 3.07 |
| CC1(C)CCN(c2c(-c3ccc(F)cc3F)c(Cl)nc3nc(C(F)(F)F)nn23)CC1 [compound 800] | 5.03 |
| CCC1=CCN(c2c(-c3ccc(F)cc3F)c(Cl)nc3nc(C(F)(F)F)nn23)CC1 [compound 801] | 4.95 |
| CC1=CCCN(c2c(-c3ccc(F)cc3F)c(Cl)nc3nc(C(F)(F)F)nn23)C1 [compound 802] | 4.55 |
| COC(=O)C1CCN(c2c(-c3ccc(F)cc3F)c(Cl)nc3nc(C(F)(F)F)nn23)CC1 [compound 803] | 3.81 |
| COC(=O)C1CCCCN1c1c(-c2ccc(F)cc2F)c(Cl)nc2nc(C(F)(F)F)nn12 (stereo not drawn) [compound 804] | 4.32 |
| Fc1ccc(-c2c(Cl)nc3nc(C(F)(F)F)nn3c2N2CCC(C(F)(F)F)CC2)c(F)c1 [compound 805] | 4.43 |
| CC(=O)NC1CCN(c2c(-c3ccc(F)cc3F)c(Cl)nc3nc(C(F)(F)F)nn23)CC1 [compound 806] | 2.71 |
| CN1CCN(c2c(-c3ccc(F)cc3F)c(Cl)nc3nc(C(F)(F)F)nn23)CC1 [compound 807] | 1.65 |
| CC1CN(c2c(-c3ccc(F)cc3F)c(Cl)nc3nc(C(F)(F)F)nn23)CC(C)O1 (stereo not drawn) [compound 808] | 4.1 |
| Fc1ccc(-c2c(Cl)nc3nc(C(F)(F)F)nn3c2N2CCCCC2)c(F)c1 [compound 809] | 4.45 |
